row,SMILES,melting point [°C]
1,CCCCCCCCCCCCc1ccc2c(Cl)cccc2c1O,68 to 70
2,CC(=O)c1c(CO[N+](=O)[O-])n(C(C)=O)c(=O)n1C(C)=O,135 to 136
3,CCOCCO[C@@H]1c2ccn3c(C)c(C)nc3c2N[C@H](c2ccccc2)[C@H]1OC(=O)OCCCC(Cl)CC (stereo not given in full),124
4,ON=c1cc(-c2cc3sccc3cn2)oc2ccc(OCCc3ccc(F)cc3)cc12,228 to 234
5,COc1c(C)c(N2CCN(c3ccc(OC(F)(F)F)cc3)CC2)c(C)c2c1OC(C)(C)C2,162 to 164
6,CC(C)N1c2ccccc2N(C(C)C)c2ccccc21,80 to 81
7,CC1(Sc2ccccc2)C(=O)C2CC=CC21 (stereo not given),49
8,CNC(=S)C1(c2ccncc2)CCCS1 (stereo not given),178
9,Cc1sc2c(Br)c3ccccc3c(-c3ccc(OS(=O)(=O)c4ccc(C(=O)O)c(O)c4)c(C(C)C)c3)c2c1C,> 225
10,Cc1ccc(CNC(=O)c2cc3c(ccc4cnn(C[C@H](C)N)c43)o2)o1,118 to 120
11,BrCC1(CBr)COC(c2ccccc2)OC1,66
12,O=CN1CCN(c2nc(N3CCSCC3)c3ncnc(NCc4ccccc4)c3n2)CC1,94 to 96
13,Cc1cccc(-c2[nH]nnc2-c2ccc3c(c2)N(CCN2CCOCC2)C(=O)CO3)n1,150
14,CCn1c(=O)c2c(nc(/C=C/c3ccc(OC(=O)c4ccccc4)c(OC)c3)n2C)n(CC)c1=O,234 to 236
15,CCOC1(OCCc2nc(C(C)C)c(Sc3cc(Cl)cc(Cl)c3)n2C)CCCCCC1,53 to 54
16,CNc1cncc(C(F)(F)F)c1,69 to 70
17,CC(C)(C#N)c1ccc(C(=O)C2CC2)cc1,80 to 82
18,c1ccc2c(c1)-c1ccccc1C2Cc1nc(COc2ccc(CCCn3ccnc3)cc2)co1,145 to 146
19,O=C(O)c1cccc(-c2ncn(-c3ccc(N4CCCC4)cc3)n2)c1,263 to 265
20,CCOC(=O)c1ccc(CCC2CC(n3c4ccccc4c4ccccc43)c3ccccc3N2C(=O)c2ccc(OC)c(OC)c2)cc1 (stereo not given),247 to 249
21,CCCCCCC(NS(=O)(=O)c1ccc(Cl)cc1)C(=O)Nc1ccc(CC(=O)OCC)cc1 (racemic),110 to 112

row,SMILES,melting point [°C]
1,CC(C#N)c1cccc2c(-c3ccccc3)onc12 (stereo not given),109 to 112
2,CN1CCC(C2=CC(=O)CCC2)C1=O (stereo not given),42 to 46
3,Fc1cc(CC2(Cc3ccnc(F)c3)c3ccccc3-c3ncncc32)ccn1,171 to 174
4,COc1ccc(N2CCN(c3c(C)c(C)c4c(c3C)C(CCc3ccccc3)C(C)(C)O4)CC2)cc1 (stereo not given),92 to 94
5,CCOC(=O)c1sc2ccc(Br)cc2c1C,87 to 88
6,CS(=O)(=O)c1c(Cl)ccc(C(=O)O)c1Cl,158
7,O=C(O)CCCCN(C(=O)c1ccc(Cl)cc1)c1ccccc1-c1ccccc1,170 to 173
8,CS(=O)(=O)Nc1cc(N2C(=O)C3=C(CCCC3)C2=O)c(F)cc1C#N,113
9,Cc1ccccc1CC(C(=O)O)C(=O)O,132 to 135
10,CC(C)(C)c1ccccc1C(O)(c1ccccc1)c1ncc[nH]1 (stereo not given),185 to 186
11,CCc1[nH]cnc1-c1cc(C(C)(C)C)c(O)c(C(C)(C)C)c1,200 to 201
12,O=C(N1C=CC2=C(CCC=C2)c2ccccc21)n1ccnc1,189 to 190
13,COc1ccc(-c2nc(/C=C/c3nccn3C)nc3cc(OC)c(OC)cc23)cc1OC,180 to 181
14,CCOC(=O)CN(CP(=O)(ONN1CCOCC1)ONN1CCOCC1)C(=O)C(F)(F)F,69 to 74
15,Cn1c2ccc(C=O)cc2c2sc3ccccc3c21,188 to 190
16,CCC(=O)c1cccc(C(=O)Nc2ccccn2)c1,128 to 129
17,"CC(C)(C)OC(=O)N1CCN(C(c2ccccc2)c2ccc(Cl)cc2)CC1 (single isomer, unassigned; (-))",156
18,COc1ccc2cc(C=CC(C)OC(C)=O)ccc2c1 (stereo not given),78 to 80
19,COC(=O)C1CC2c3cccc4[nH]cc(c34)CC2N(C(C)C)C1 (stereo not given),193 to 195
20,Fc1ccc(-n2cc(OCCN3CCCCC3)c3cc(Cl)ccc32)cc1,82 to 84
21,NS(=O)(=O)c1ccc(-c2noc(-c3ncn4c(C(F)(F)F)cc(-c5ccc(C(F)(F)F)cc5)nc34)n2)s1,295

# Now from value to molecule:
row,melting point [°C],SMILES
1,111 to 114,O=C(Nc1ccccc1[N+](=O)[O-])C12CC3CC(CC(C3)C1)C2
2,136 to 137,CC(C(N)=O)c1ccc(-c2ccc(F)cc2F)c(F)c1 (stereo not given)
3,172 to 175,CC(=O)OCc1cc(=O)n2c(ccn2-c2ccccc2)n1
4,250,O=C1Nc2cccc(Cl)c2C(=O)N2CC=C[C@@H]12
5,172 to 174,COC(=O)C(=CN(C)C)N(C)c1cc(-c2cccc(OC)c2)ncn1
6,254 to 256,Oc1ccc2oc(-c3ccc(O)c(Cl)c3)nc2c1
7,250 to 251,Cc1cccc(-c2nc3cccnn3c2-c2ccnc(N)n2)c1
8,131 to 132,COC[C@@H](C)N1Cc2c(ccc(Cl)c2NC(=O)c2ccc(F)c(C(F)(F)F)c2)C1=O
9,236 to 238,O=C(Nc1ccc(-c2ncc(-c3ccc(NC(=O)C4CCCCCC4)cc3)[nH]2)cc1)c1ccc([N+](=O)[O-])cc1
10,132 to 133,CC(C)NCC(O)(Cn1cncn1)c1ccc(Cl)cc1Cl (stereo not given)
11,120 to 121,CCCCOc1cc(CCS(=O)(=O)NC(=O)OC(C)C)n(Cc2ccc(Cl)cc2Cl)n1
12,200 to 202,CCCc1nc2c(C)ccnc2n1Cc1ccc(-c2ccccc2-c2nnn[nH]2)cc1
13,139 to 140,CN1CCC(n2nc(-c3c(-c4ccccc4)nn4ccccc34)ccc2=O)CC1
14,227 to 228,CC(C)(CCC#N)c1ccc(C(=O)Nc2cn3c4c(ccc3n2)OCC4)cc1
15,100 to 102,CC1CC(=O)c2cc(Cl)ccc2O1 (stereo not given)
16,188,CC(C)NC(=O)COC1c2ccccc2C(=O)N1c1ccc2ccc(Cl)nc2n1 (stereo not given)
17,193 to 194,CCCCc1nc2cc[nH]c(=O)c2n1Cc1ccc([N+](=O)[O-])cc1
18,113 to 115,Nc1c(CC(=O)O)cccc1Oc1cc(Cl)cc(Cl)c1
19,58 to 60,CCCCNC(=O)[C@@H]1Cc2ccccc2CN1
20,137,O=C(Oc1ccccc1)N1CCCc2nc3ccccc3c(Cl)c2C1
21,196 to 200,CCCc1nc2c(N)nc3cc(OCCC4CCN(C(=O)OC(C)(C)C)CC4)ccc3c2n1CC(C)C
22,255,O=C(Nc1nccs1)c1c(C(O)CO)nc2c(C(F)(F)F)cccc2c1O (stereo not given)
23,83 to 85,Cc1c(S(=O)(=O)C(F)(F)F)cnn1-c1c(Cl)cc(C(F)(F)F)cc1Cl
24,192 to 195,CS(=O)(=O)c1ccc(-c2sc(-c3ccccc3Cl)nc2-c2ccccc2)cc1
25,154 to 156,CCOC(=O)c1nn(-c2ccccc2)c2c1COc1ccccc1-2
26,148 to 150,CC1=CC(O)C(OC(=O)c2ccc([N+](=O)[O-])cc2)C(C)(C)CC1=O (stereo not given)
27,150 to 152,Cc1cc(Cl)nc(N(C=O)c2ccccc2)n1
28,126 to 127,C[C@@H]1Cc2cc3c(cc2C(c2ccc([N+](=O)[O-])c(Cl)c2)=NN1C(=S)NN)OCO3
